Reference: patent US9975903B2, “Condensed heterocyclic compound” (Takeda Pharmaceutical Company Limited, priority 2014, dated 2018)

Key:
[1] = target: T1, Human recombinant enteropeptidase (Homo sapiens, UniProt P98073); test: Human enteropeptidase inhibitory activity (Test Example 1); assay type: biochemical; details: 3.3 μM test compound, inhibition rate from fluorescence intensity at 2 hours after the start of the reaction; for inhibition at 3.3 µM: read-out: 3.3 μM Inhibition
T1 construct: purchased ITSI-Biosciences LLC #REN-260
T1 sequence (P98073 whole entry): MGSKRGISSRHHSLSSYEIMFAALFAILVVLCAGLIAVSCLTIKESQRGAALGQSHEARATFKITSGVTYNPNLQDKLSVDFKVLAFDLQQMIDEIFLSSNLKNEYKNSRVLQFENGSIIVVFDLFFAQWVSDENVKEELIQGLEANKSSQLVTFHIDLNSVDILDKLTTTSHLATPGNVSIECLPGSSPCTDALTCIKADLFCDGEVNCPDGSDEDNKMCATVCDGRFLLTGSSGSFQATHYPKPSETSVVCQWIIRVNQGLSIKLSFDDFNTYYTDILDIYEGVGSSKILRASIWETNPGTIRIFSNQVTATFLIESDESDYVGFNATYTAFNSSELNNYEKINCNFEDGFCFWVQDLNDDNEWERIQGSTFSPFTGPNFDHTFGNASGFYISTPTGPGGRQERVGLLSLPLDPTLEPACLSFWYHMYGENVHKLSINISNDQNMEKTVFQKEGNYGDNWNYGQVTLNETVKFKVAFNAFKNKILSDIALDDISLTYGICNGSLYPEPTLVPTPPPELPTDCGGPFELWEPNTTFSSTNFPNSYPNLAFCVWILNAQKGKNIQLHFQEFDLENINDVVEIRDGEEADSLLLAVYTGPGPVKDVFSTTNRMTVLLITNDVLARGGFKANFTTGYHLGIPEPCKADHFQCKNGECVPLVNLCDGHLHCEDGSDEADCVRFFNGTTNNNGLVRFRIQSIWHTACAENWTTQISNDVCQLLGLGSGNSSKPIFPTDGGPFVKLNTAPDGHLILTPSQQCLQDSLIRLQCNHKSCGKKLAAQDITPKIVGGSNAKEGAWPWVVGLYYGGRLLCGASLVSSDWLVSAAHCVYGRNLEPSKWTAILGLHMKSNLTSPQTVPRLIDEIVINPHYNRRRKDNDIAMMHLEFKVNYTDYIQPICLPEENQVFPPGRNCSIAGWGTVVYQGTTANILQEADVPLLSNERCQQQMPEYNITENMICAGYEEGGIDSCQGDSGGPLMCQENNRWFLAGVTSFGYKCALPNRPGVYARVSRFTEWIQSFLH
Procedure, shortened: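 Recombinant human enteropeptidase in 50 mM Tricine pH 8.0, 0.01% Tween 20, 10 mM CaCl2, with a 5FAM/CPQ2-quenched peptide substrate (2.1 μM solution before mixing). Compound came from 1 mM DMSO stock diluted 100-fold in buffer. Fluorescence (ex 485/em 535 nm) at 2 h gave % inhibition versus no-compound and no-enzyme controls.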

[2] = test system: High fat diet-fed (HFD-fed) mice; test: Fecal protein concentration-increasing test using HFD-fed mouse (Test Example 2-1); assay type: in vivo; details: male, 19-week old, 10 mg/kg orally, whole feces of first day of administration, average ± standard deviation, six mice
Method: (§1) High fat diet-fed (HFD-fed) mice (D12079B diet, male, 19-week old) were orally administered with a 0.5% methyl cellulose suspension containing a test compound (10 mg/kg) (compound administration group, six mice per group) or a 0.5% methyl cellulose suspension (compound non-administration group (vehicle), five mice per group), and whole feces were collected on the first day of administration. Dried feces were dissolved in 0.5 N NaOH, followed by centrifugation at 12,000 rpm. The protein concentration in the supernatant was then quantitatively measured (Lowry method), and the amount of protein contained in 1 g of feces was calculated as the fecal protein concentration (mg/g feces). The average and the standard deviation of each group are shown below.

[3] = test system: Diet-induced obesity (DIO) mice; test: Anti-obesity effect test using DIO mouse (Test Example 3); assay type: in vivo; details: male, 32-week old, average ± standard deviation, six mice
Method: Diet-induced obesity (DIO) mice (D12079B diet, male, 32-week old) were orally administered with a 0.5% methyl cellulose suspension containing a test compound (10 mg/kg) (compound administration group, six mice per group) or a 0.5% methyl cellulose suspension (compound non-administration group (vehicle), six mice per group) once a day for one week. The averages and the standard deviations of the body weights at the start of administration and after continuous administration for one week are shown below.

[4] = test system: High fat diet-fed (HFD-fed) mice; test: Fecal protein concentration-increasing test using HFD-fed mouse (Test Example 2-2); assay type: in vivo; details: male, 47-week old, 10 mg/kg orally, whole feces of first day of administration, average ± standard deviation, five mice
Method: as §1, with “47-week” for “19-week”, “five” for “six”, “was” for “was then”

Compound	inhibition at 3.3 µM [1] [%]	Fecal protein concentration (mg/g feces) [4] [mg/g feces]	other results
N=C(N)Nc1ccc2c(c1)CCCOc1c(cccc1C(=O)N[C@@H](CC(=O)O)C(=O)O)OC2=O [Example 3, N-((10-Carbamimidamido-13-oxo-6,7,8,13-tetrahydrodibenzo[b,f][1,4]dioxecin-4-yl)carbonyl)aspartic acid]			3.3 μM Inhibition [1]: 101%; Fecal protein concentration (mg/g feces) [2]: 233.3 ± 35.9 mg/g feces; Body Weight (g) After continuous administration for one week ([3]; 10 mg/kg orally once a day for one week): 41.4 ± 2.2 g; Body Weight (g) Start of administration ([3]; group given 10 mg/kg orally once a day, baseline): 44.5 ± 2.2 g
COc1ccc(C[C@@H](C(=O)O)N(CC(=O)O)C(=O)c2cccc3c2OCCCc2cc(NC(=N)N)ccc2C(=O)O3)cc1 [Example 94, N-((10-Carbamimidamido-13-oxo-6,7,8,13-tetrahydrodibenzo[b,f][1,4]dioxecin-4-yl)carbonyl)-N-(carboxymethyl)-O-methyl-L-tyrosine]	101	201.0 ± 21.8	
N=C(N)Nc1ccc2c(c1)CCCOc1c(cccc1C(=O)N(CCN(CC(=O)O)CC(=O)O)CC(=O)O)OC2=O [Example 120, N-(2-(Bis(carboxymethyl)amino)ethyl)-N-((10-carbamimidamido-13-oxo-6,7,8,13-tetrahydrodibenzo[b,f][1,4]dioxecin-4-yl)carbonyl)glycine]	101	194.6 ± 48.1	
N=C(N)Nc1ccc2c(c1)CCCOc1c(cccc1C(=O)N(CC(=O)O)[C@@H](Cc1ccc(OCCN(CC(=O)O)Cc3ccccc3)cc1)C(=O)O)OC2=O [Example 122, O-(2-(Benzyl(carboxymethyl)amino)ethyl)-N-((10-carbamimidamido-13-oxo-6,7,8,13-tetrahydrodibenzo[b,f][1,4]dioxecin-4-yl)carbonyl)-N-(carboxymethyl)-L-tyrosine]	101	165.4 ± 16.2	
N=C(N)Nc1ccc2c(c1)CCCOc1c(cccc1C(=O)N(Cc1cccc(C(=O)O)c1)[C@@H](CC(=O)O)C(=O)O)OC2=O [Example 136, N-((10-Carbamimidamido-13-oxo-6,7,8,13-tetrahydrodibenzo[b,f][1,4]dioxecin-4-yl)carbonyl)-N-(3-carboxybenzyl)-L-aspartic acid]	100	274.3 ± 74.6	
N=C(N)Nc1ccc2c(c1)CCCOc1c(ccc(CCC(=O)O)c1C(=O)N(CC(=O)O)Cc1cccc(C(=O)O)c1)OC2=O [Example 145, 3-((((10-Carbamimidamido-3-(2-carboxyethyl)-13-oxo-6,7,8,13-tetrahydrodibenzo[b,f][1,4]dioxecin-4-yl)carbonyl) (carboxymethyl)amino)methyl)benzoic acid]	99	201.3 ± 45.3	
N=C(N)Nc1ccc2c(c1)CCCOc1c(cccc1C(=O)N(Cc1ccc(C(=O)O)cc1)C(CC(=O)O)CC(=O)O)OC2=O [Example 147, 3-(((10-carbamimidamido-13-oxo-6,7,8,13-tetrahydro-dibenzo[b,f] [1,4]dioxecin-4-yl)carbonyl)(4-carboxybenzyl)amino)penta-nedioic acid]	100		
N=C(N)Nc1ccc2c(c1)CCCOc1c(ccc(CCC(=O)O)c1C(=O)N(CC(=O)O)Cc1cccc(CN(CC(=O)O)CC(=O)O)c1)OC2=O [Example 148, 3-(4-((3-((bis(carboxymethyl)amino)methyl)-benzyl) (carboxymethyl)carbamoyl)-10-carbamimidamido-13-oxo-6,7,8,13-tetrahydro-dibenzo[b,f] [1,4]dioxecin-3-yl)propanoic acid]	101		
N=C(N)Nc1ccc2c(c1)CCCOc1c(ccc(CCC(=O)O)c1C(=O)N(CCN(CC(=O)O)CC(=O)O)CC(=O)O)OC2=O [Example 149]	101		
diethyl (4-(((10- carbamimidamido- 13-oxo-6,7,8,13- tetrahydro- dibenzo[b,f] [1,4]dioxecin-4- yl)carbonyl)amino) benzyl)phosphorate [Example 4]			3.3 μM Inhibition [1]: 98%
